From ChEMBL document CHEMBL5247683 (ACS Med Chem Lett, 2023)

Assays:
[1] = molecular target: Tyrosine-protein kinase JAK1 (Homo sapiens, UniProt P23458); experiment: Inhibition of GST-fused JAK1 (866 to 1154 residues) (unknown origin) using FITC-AhxKKSRGDYMTMQIG-NH2 peptide as substrate incubated for 60 mins in presence of ATP by Janus kinase assay
JAK3/JAK1 [2] = molecular target: T1, JAK3/JAK1 (Homo sapiens, UniProt P23458+P52333); experiment: Inhibition of JAK1/JAK3 in human M07E cells assessed as reduction of IL-15 stimulated STAT phosphorylation preincubated for 30 mins followed by IL-15 stimulation for 15 mins by flow cytometry method; type: cell-based
T1 sequence (P23458 whole entry, one chain of several): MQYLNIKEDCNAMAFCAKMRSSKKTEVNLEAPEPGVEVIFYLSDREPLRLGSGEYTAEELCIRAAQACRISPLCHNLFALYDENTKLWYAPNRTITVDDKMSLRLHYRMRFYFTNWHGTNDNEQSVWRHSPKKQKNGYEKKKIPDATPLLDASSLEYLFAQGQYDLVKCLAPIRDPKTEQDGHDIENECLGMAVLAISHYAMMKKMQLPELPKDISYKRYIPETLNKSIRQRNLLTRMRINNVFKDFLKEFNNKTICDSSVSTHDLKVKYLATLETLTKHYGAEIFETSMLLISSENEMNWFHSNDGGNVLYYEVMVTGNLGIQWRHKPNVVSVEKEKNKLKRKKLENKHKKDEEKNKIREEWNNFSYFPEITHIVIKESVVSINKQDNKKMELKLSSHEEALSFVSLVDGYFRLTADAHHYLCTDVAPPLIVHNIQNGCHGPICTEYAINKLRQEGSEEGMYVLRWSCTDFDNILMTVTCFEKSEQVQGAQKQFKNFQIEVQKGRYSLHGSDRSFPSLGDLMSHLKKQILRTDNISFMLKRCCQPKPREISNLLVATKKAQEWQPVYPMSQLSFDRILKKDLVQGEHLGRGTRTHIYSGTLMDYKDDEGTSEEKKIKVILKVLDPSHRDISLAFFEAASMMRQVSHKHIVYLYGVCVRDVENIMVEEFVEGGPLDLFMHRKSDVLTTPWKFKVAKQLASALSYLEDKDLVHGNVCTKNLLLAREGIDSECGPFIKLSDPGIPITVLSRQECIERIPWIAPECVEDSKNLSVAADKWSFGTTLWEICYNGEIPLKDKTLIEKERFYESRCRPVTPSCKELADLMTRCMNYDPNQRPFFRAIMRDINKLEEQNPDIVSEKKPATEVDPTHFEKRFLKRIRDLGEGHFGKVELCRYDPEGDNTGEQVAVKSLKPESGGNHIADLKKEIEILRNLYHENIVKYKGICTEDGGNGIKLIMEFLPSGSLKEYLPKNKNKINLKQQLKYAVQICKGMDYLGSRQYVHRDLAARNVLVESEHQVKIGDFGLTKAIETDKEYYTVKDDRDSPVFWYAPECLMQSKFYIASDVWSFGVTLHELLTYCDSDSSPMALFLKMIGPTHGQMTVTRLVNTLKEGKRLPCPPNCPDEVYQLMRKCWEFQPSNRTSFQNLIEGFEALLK

JAK3/JAK1 [3] = molecular target: T1, JAK3/JAK1; type: tissue-based, Blood
Description: Inhibition of JAK1/JAK3 in human blood assessed as reduction of IL-2 stimulated STAT phosphorylation preincubated for 30 mins followed by IL-2 stimulation for 15 mins by flow cytometry method

JAK1/TYK2 = JAK1/TYK2 (Homo sapiens, UniProt P23458+P29597); experiment: Inhibition of JAK1/TYK2 in human M07E cells assessed as reduction of IFN alpha stimulated STAT phosphorylation preincubated for 30 mins followed by IFN alpha stimulation for 15 mins by flow cytometry method; type: cell-based
Sequence of JAK1/TYK2 (P23458 whole entry, the tested form may be a part): as the sequence (P23458 whole entry, one chain of several) above
Sequence of JAK1/TYK2 (P29597 whole entry, the tested form may be a part): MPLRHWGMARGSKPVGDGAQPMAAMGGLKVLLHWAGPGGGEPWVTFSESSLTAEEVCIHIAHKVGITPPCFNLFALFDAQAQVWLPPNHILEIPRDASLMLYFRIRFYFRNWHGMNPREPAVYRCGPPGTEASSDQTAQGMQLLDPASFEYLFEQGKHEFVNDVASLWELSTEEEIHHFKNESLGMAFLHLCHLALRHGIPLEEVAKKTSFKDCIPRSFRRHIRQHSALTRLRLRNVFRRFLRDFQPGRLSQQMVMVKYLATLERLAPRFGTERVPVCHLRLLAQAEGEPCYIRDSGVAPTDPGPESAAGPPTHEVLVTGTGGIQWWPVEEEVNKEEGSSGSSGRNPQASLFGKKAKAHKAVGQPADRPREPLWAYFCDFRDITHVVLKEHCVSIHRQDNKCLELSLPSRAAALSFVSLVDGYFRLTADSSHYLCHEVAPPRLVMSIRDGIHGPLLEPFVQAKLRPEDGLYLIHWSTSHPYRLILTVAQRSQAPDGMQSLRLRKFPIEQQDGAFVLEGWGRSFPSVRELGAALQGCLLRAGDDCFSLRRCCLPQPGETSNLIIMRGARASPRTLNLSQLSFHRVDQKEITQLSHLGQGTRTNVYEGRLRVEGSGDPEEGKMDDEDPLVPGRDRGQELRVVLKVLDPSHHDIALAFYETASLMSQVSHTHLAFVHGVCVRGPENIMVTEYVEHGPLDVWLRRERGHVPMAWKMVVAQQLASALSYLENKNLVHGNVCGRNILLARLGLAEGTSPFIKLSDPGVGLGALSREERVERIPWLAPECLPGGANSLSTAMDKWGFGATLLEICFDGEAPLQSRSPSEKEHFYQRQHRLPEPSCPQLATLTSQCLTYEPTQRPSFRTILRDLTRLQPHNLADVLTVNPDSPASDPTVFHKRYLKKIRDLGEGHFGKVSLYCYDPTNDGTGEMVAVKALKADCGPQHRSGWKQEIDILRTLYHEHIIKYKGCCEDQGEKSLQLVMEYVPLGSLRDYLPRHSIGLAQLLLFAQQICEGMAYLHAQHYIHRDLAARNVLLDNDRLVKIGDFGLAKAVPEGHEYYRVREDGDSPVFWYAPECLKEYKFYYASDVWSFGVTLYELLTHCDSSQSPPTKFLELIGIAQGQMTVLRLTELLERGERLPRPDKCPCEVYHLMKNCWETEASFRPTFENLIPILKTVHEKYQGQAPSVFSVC

[4] = molecular target: T2, Tyrosine-protein kinase JAK3 (Homo sapiens, UniProt P52333); experiment: Inhibition of GST-fused JAK3 (811 to 1124 residues) (unknown origin) using Carboxyfluorescein-Ahx-GGEEEEYFELVKKKK peptide as substrate incubated for 60 mins in presence of ATP by Janus kinase assay
T2 sequence (P52333 whole entry): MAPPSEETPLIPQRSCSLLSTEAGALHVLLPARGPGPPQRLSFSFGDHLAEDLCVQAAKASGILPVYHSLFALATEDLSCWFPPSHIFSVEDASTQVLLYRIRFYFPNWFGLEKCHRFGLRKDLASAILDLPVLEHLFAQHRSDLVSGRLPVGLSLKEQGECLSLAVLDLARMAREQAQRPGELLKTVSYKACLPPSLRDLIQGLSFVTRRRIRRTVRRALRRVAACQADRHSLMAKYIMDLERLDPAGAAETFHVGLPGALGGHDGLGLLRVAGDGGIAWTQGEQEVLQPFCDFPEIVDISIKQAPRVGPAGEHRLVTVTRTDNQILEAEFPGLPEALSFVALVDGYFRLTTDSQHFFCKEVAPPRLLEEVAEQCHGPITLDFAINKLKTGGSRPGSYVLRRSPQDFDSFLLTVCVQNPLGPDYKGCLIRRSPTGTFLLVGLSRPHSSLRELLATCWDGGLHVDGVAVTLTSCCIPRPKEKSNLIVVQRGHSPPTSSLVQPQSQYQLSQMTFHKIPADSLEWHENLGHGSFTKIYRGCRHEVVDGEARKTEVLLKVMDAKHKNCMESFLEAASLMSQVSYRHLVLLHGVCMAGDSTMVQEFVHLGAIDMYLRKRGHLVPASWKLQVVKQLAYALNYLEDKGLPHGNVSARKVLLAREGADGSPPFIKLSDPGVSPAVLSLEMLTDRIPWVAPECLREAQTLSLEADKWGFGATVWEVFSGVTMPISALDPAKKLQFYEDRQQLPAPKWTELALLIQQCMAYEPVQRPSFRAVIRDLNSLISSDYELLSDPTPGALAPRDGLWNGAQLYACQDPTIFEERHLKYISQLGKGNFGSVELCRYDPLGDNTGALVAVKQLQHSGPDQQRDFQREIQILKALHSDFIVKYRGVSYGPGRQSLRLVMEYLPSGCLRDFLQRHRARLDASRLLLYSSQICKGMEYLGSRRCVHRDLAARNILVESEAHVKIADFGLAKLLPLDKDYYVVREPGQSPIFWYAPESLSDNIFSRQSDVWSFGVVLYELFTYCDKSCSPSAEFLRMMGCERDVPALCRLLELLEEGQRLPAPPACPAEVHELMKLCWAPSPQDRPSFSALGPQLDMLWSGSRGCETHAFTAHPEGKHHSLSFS

[5] = molecular target: Tyrosine-protein kinase JAK2 (Homo sapiens, UniProt O60674); experiment: Inhibition of GST-fused JAK2 (808 to 1132 residues) (unknown origin) using Carboxyfluorescein-Ahx-GGEEEEYFELVKKKK peptide as substrate incubated for 60 mins in presence of ATP by Janus kinase assay
Sequence of Tyrosine-protein kinase JAK2 (O60674 whole entry, the tested form may be a part): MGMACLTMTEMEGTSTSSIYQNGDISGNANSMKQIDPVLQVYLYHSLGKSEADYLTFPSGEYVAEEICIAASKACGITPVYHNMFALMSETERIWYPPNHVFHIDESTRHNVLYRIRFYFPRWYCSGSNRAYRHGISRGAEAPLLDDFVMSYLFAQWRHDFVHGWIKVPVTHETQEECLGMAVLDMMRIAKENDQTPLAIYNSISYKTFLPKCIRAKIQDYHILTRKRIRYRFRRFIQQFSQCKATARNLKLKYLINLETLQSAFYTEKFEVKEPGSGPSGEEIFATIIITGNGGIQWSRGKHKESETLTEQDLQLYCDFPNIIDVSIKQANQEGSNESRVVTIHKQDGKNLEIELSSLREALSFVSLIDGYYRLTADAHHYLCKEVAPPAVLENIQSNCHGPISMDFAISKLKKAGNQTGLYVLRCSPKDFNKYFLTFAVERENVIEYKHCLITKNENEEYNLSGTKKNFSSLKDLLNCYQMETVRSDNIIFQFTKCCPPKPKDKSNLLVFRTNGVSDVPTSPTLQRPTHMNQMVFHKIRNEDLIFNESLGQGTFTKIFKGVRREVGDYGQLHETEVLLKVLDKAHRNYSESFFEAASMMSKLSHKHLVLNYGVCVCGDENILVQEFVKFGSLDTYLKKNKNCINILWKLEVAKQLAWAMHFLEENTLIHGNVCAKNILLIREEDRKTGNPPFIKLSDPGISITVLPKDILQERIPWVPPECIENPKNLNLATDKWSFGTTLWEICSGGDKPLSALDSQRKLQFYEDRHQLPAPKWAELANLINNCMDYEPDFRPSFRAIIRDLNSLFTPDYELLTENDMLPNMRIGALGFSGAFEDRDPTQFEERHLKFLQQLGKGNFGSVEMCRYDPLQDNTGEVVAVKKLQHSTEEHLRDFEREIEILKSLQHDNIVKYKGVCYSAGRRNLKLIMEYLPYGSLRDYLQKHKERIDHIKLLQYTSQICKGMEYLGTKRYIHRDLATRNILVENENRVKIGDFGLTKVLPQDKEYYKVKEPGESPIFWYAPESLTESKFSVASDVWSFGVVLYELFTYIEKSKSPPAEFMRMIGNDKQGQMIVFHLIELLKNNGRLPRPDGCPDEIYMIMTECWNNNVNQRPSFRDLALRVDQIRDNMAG

[6] = molecular target: Non-receptor tyrosine-protein kinase TYK2 (Homo sapiens, UniProt P29597); experiment: Inhibition of GST-fused Tyk2 (888 to 1187 residues) (unknown origin) using FITC-AhxKKSRGDYMTMQIG-NH2 peptide as substrate incubated for 60 mins in presence of ATP by Janus kinase assay
Sequence of Non-receptor tyrosine-protein kinase TYK2 (P29597 whole entry, the tested form may be a part): as the sequence (P29597 whole entry, the tested form may be a part) above

[7] = Dissociation constant, pKa of compound; type: physicochemical
Aurora kinase A = molecular target: T3, Aurora kinase A (Homo sapiens, UniProt O14965); experiment: Inhibition of AuroraA (unknown origin)
T3 sequence (O14965 whole entry): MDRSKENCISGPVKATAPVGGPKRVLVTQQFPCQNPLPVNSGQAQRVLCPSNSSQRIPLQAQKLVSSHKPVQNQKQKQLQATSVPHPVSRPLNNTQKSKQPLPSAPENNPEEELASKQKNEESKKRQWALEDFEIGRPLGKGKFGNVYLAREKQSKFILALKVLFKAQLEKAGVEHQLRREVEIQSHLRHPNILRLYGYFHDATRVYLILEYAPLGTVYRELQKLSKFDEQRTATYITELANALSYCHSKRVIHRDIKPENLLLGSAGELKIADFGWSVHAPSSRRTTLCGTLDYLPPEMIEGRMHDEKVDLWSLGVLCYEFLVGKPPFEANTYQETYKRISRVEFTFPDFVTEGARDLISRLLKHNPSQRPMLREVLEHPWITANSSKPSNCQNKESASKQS

[8] = molecular target: T4, Serine/threonine-protein kinase 4 (Homo sapiens, UniProt Q13043); experiment: Inhibition of STK4 (unknown origin)
T4 sequence (Q13043 whole entry): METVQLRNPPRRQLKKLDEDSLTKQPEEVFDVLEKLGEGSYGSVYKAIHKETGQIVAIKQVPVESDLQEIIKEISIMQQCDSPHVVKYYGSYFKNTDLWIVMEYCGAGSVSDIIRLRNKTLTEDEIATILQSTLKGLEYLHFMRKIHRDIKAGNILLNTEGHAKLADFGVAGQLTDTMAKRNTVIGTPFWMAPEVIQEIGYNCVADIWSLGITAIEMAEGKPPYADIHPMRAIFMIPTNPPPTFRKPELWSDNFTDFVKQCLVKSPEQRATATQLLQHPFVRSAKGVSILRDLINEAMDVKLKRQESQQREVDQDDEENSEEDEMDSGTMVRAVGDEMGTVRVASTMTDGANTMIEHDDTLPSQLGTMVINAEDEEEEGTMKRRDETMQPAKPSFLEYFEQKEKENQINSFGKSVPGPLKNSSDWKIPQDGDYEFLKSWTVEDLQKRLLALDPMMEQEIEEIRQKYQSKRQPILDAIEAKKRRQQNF

[9] = molecular target: Vascular endothelial growth factor receptor 2 (Homo sapiens, UniProt P35968); experiment: Inhibition of KDR (unknown origin)
Sequence of Vascular endothelial growth factor receptor 2 (P35968 whole entry): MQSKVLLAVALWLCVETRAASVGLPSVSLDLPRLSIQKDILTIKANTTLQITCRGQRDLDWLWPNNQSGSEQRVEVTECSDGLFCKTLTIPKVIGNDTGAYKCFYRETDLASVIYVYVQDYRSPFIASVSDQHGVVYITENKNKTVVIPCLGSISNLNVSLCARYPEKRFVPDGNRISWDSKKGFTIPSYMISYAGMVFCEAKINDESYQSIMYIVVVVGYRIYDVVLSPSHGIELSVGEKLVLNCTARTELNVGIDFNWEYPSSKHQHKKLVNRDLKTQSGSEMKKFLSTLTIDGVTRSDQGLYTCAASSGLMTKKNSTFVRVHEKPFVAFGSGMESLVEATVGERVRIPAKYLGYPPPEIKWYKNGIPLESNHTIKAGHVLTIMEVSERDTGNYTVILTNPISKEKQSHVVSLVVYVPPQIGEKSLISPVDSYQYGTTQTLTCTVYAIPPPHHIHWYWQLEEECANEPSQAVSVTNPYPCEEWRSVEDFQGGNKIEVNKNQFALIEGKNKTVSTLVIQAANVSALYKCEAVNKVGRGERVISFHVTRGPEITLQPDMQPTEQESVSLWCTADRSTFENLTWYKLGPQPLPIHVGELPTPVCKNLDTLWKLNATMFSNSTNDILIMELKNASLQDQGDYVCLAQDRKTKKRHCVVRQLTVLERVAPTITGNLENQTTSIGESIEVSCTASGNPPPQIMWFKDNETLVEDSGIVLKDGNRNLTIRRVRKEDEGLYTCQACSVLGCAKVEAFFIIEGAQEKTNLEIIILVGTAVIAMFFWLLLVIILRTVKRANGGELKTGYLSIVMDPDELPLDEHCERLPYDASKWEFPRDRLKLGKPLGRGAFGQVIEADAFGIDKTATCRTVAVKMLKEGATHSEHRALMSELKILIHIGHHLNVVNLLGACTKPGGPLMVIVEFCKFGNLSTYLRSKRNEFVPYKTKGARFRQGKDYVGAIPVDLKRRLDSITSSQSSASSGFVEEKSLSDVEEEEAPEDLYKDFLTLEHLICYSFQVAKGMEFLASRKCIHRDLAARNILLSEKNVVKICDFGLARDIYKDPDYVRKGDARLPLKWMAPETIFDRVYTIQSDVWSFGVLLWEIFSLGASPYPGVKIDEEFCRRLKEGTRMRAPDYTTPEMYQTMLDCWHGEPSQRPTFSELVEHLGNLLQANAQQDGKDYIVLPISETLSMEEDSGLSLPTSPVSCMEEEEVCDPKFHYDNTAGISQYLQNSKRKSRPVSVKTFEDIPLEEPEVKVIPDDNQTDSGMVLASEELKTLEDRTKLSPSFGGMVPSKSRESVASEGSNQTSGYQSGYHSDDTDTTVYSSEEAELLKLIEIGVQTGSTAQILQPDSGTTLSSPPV

[10] = molecular target: Glycogen synthase kinase-3 beta (Homo sapiens, UniProt P49841); experiment: Inhibition of GSK3B (unknown origin)
[11] = molecular target: T5, Interleukin-1 receptor-associated kinase 4 (Homo sapiens, UniProt Q9NWZ3); experiment: Inhibition of IRAK4 (unknown origin)
T5 sequence (Q9NWZ3 whole entry): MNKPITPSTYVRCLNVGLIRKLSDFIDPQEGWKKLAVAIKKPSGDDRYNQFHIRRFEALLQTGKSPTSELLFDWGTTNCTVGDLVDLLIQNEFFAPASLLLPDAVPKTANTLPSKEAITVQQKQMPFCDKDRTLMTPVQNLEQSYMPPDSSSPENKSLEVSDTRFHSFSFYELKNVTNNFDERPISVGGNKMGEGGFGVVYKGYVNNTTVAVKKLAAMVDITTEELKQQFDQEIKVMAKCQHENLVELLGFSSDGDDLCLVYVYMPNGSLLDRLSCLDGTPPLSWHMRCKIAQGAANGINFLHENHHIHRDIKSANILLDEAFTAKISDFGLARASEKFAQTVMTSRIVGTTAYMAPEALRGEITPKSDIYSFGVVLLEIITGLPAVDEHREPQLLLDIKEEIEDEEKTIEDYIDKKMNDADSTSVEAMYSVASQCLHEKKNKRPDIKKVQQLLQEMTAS

[12] = molecular target: T6, Receptor-type tyrosine-protein kinase FLT3 (Homo sapiens, UniProt P36888); experiment: Inhibition of FLT3 (unknown origin)
T6 sequence (P36888 whole entry): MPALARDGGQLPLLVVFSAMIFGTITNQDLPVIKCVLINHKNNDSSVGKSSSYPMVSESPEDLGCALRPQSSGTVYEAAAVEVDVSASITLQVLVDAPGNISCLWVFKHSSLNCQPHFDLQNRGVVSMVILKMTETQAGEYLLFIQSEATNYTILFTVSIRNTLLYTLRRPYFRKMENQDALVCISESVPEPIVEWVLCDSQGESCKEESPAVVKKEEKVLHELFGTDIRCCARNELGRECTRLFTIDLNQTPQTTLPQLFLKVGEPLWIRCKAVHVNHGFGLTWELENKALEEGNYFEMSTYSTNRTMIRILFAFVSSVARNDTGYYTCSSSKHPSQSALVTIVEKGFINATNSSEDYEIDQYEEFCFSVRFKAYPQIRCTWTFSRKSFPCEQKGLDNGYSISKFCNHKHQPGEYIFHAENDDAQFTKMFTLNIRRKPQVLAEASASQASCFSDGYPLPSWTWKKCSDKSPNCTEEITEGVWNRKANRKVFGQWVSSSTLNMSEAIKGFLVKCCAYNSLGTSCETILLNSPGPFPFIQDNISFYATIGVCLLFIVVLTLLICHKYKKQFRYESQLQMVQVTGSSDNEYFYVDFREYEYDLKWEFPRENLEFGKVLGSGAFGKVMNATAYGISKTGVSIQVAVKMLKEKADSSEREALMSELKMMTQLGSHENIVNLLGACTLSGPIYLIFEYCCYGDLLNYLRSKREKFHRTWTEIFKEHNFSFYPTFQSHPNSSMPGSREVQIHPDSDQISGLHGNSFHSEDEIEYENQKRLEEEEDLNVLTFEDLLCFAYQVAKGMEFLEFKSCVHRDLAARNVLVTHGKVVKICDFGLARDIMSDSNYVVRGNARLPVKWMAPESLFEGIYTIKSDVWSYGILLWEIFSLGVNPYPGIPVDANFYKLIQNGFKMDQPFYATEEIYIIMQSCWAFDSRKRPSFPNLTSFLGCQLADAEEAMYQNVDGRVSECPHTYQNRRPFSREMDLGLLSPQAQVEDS

[13] = molecular target: Tyrosine-protein kinase Lck (Homo sapiens, UniProt P06239); experiment: Inhibition of LCK (unknown origin)
[14] = Inhibition of p70S6K (unknown origin); design: species or system Homo sapiens
in vitro = conditions: human, liver microsomes
Description: Intrinsic clearance in human liver microsomes

Sequence of Tyrosine-protein kinase JAK1 (P23458 whole entry, the tested form may be a part): as the sequence (P23458 whole entry, one chain of several) above

Row | Structure (SMILES) | IC50 [1] [nM] | IC50 (JAK3/JAK1 [2]) [nM] | IC50 (JAK3/JAK1 [3]) [nM] | IC50 (JAK1/TYK2) [nM] | IC50 [4] [nM] | IC50 [5] [nM] | IC50 [6] [nM] | pKa [7] | IC50 (Aurora kinase A) [nM] | IC50 [8] [nM] | IC50 [9] [nM] | IC50 [10] [nM] | IC50 [11] [nM] | IC50 [12] [nM] | IC50 [13] [nM] | IC50 [14] [nM] | microsomal CLint (in vitro) [µL/min/mg]
1 | NC(=O)c1cnc(Nc2ccc(O)cn2)cc1Nc1ccccc1Cl | 14 | 218 | 525 | 290 | 20 | 20 | – | – | – | – | – | – | – | – | – | – | –
2 | C[C@H]1CN(C(=O)CC#N)[C@]12CCN(c1ncnc3[nH]ccc13)C2 [DELGOCITINIB] | – | – | – | – | – | – | – | – | – | – | – | – | – | – | – | – | < 25

The next lines start with the values.

Row | IC50 [1] [nM] | IC50 (JAK3/JAK1 [2]) [nM] | IC50 (JAK3/JAK1 [3]) [nM] | IC50 (JAK1/TYK2) [nM] | IC50 [4] [nM] | IC50 [5] [nM] | IC50 [6] [nM] | pKa [7] | IC50 (Aurora kinase A) [nM] | IC50 [8] [nM] | IC50 [9] [nM] | IC50 [10] [nM] | IC50 [11] [nM] | IC50 [12] [nM] | IC50 [13] [nM] | IC50 [14] [nM] | microsomal CLint (in vitro) [µL/min/mg] | Structure (SMILES)
3 | 103 | 169 | 2170 | 271 | 89 | 76 | 77 | – | – | – | – | – | – | – | – | – | – | COc1cccc(Nc2cc(Nc3ccccc3Cl)c(C(N)=O)cn2)n1
4 | – | – | – | – | – | – | 60 | 6.2 | – | – | – | – | – | – | – | – | – | Cc1cccc(Nc2cc(Nc3ccccc3Cl)c(C(N)=O)cn2)n1
5 | 3270 | > 10000 | > 30000 | > 10000 | 4560 | 3150 | 2090 | – | > 2500 | > 2500 | > 2500 | > 2500 | > 2500 | > 2500 | > 2500 | > 2500 | – | NC(=O)c1cnc(Nc2cccc(O)n2)cc1Nc1ccccc1Cl
6 | 131 | 116 | > 30000 | 71 | 76 | 52 | 59 | – | – | – | – | – | – | – | – | – | – | CCOC(=O)Oc1cccc(Nc2cc(Nc3ccccc3Cl)c(C(N)=O)cn2)n1
